Entries after “also recorded” stand apart in the source; their conditions may differ.
Legend:
[1] = system: MCF-7 cells; test: Apoptosis by TUNEL assay; assay type: cell-based; details: with simvastatin or fluvastatin 5-10 μM, 48 h, 1400 W 10 μM, sepiapterin 50 μM, mevalonate 20 μM
Source text: Measurement of Apoptosis by TUNEL Assay:
The terminal deoxynucleotidyl transferase-mediated nick-end labeling (TUNEL) assay was used for microscopic detection of apoptosis (Kotamraju S, et al. J Biol Chem, 277:17179-87, 2002). This assay is based on labeling of 3′ free hydroxyl ends of the fragmented DNA with fluorescein-dUTP catalyzed by terminal deoxynucleotidyl transferase. Procedures were followed according to a commercially available kit (ApoAlert) from Clontech. […] The apoptotic cells were detected by fluorescence microscopy equipped with rhodamine and FITC filters. The quantification of apoptosis was performed using the Metamorph image analysis package.
Under these conditions, NO2^−/NO3^− levels were decreased (FIG. 4B). […] Further verification that iNOS is involved in […] NO was obtained from inhibition of geranylgeranylation and farnesylation. […] In contrast, FTI-277 (farnesylation inhibitor) and sepiapterin had no effect on NO2^−/NO3^− levels (FIG. 4C). […] In the TUNEL assay, cells were treated with simvastatin or fluvastatin (5-10 μM) for 48 h in the presence or absence of 1400 W (10 μM), sepiapterin (50 μM) or mevalonate (20 μM) and stained for TUNEL-positive cells as an index of DNA fragmentation monitored by fluorescence microscopy (original magnification, ×100). Photographs were taken for the overlaid images of propidium iodide-and FITC-stained cells (TUNEL-positive cells). Yellow and red denote apoptotic and nonapoptotic cells, respectively. We observed that the TUNEL positive staining was enhanced in statin-treated MCF-7 cells. […] Pretreatment with 1400 W or mevalonate caused a decrease in the TUNEL positive cells.

[2] = system: NO2-/NO3- levels in MCF-7 cells; test: Nitrite and nitrate measurements by chemiluminescence (NO analyzer); assay type: cell-based; details: for effect on statin-induced NO / NO2-/NO3- levels: with simvastatin or fluvastatin (10 μM), 40 h, mevalonate 20 μM, 1400 W 10 μM, sepiapterin 50 μM, compared to statin alone
Method: Briefly, following treatments, cells were washed three times with DPBS after aspirating the medium. To this, 1 ml of Hanks' balanced salt mixture containing 25 μM L-arginine was added and incubated for 30 min at 37° C. The medium was collected and centrifuged for 5 min at 5000 rpm, and 50 μl of the clear supernatant was used for nitrate and nitrite analysis. Each sample was analyzed in triplicate.

[3] = system: MCF-7 cells; test: Soft agar assay for colony formation (anchorage-independent growth); assay type: cell-based; details: for visible colony formation in soft agar: MCF-7 cells, 10 μM, treated 40 h, colonies after 21 days
Method: Soft Agar Assay for Colony Formation:
After cells were treated with various conditions, they were seeded in six-well plates. The plates were first covered with phenol red-free MEM containing 0.6% agar and 10% FBS. The middle layer contained cells (5×10^3) in phenol red-free MEM with 0.35% agar and 10% FBS. The top layer, consisting of the medium, was added to prevent drying of the agar in the plates. The plates were incubated for 21 days, after which the plates were stained in 0.5 ml of 0.005% crystal violet for 1 h and the cultures were inspected and photographed. The colony efficiency (CE) was determined by a count of the number of colonies greater than […] in diameter, which was calculated as the average of colonies counted at 50× magnification in five individual fields manually (Liu S, et al. Oncogene, 23:1256-62, 2004).
The long-term effects of statins and the inhibitors on the proliferation and survival of MCF-7 cells were determined using clonogenic assays (Ramanathan B, et al. Cancer Res, 65:8455-60, 2005). The extent of malignancy of cells corresponds to the attainment of anchorage-independent growth (Liu S, et al. Oncogene, 23:1256-62, 2004). MCF-7 cells were treated with simvastatin or fluvastatin in the presence or absence of either 1400 W or mevalonate or sepiapterin. In separate experiments, cells were treated with either GGTI-298 or FTI-277. At the end of the treatments, approximately 5×10^3 cells were seeded onto a soft agar to determine their clonogenic efficiency after 21 days. […] In the presence of either 1400 W or mevalonate, the colony formation was restored in statin-treated cells (FIG. 6B).

[4] = system: MCF-7 cells; test: Cell cycle analysis by flow cytometry; assay type: cell-based; details: 1400 W 10 μM, mevalonate 20 μM
Method: For DNA content analysis, harvested cells were centrifuged at 1,000×g for 5 min, fixed by the gradual addition of ice-cold 70% ethanol, and washed with PBS. Cells were then treated with RNase (10 μg/mL) for 30 min at 37° C., washed once with PBS, and resuspended and stained in 1 mL of 69 μmol/L propidium iodide in 38 mmol/L sodium citrate for 30 min at room temperature. The cell cycle phase distribution was determined by analytic DNA flow cytometry as described in (Vindelov L, et al. Methods Cell Biol, 33:127-37, 1990). The percentage of cells in each phase of the cell cycle was analyzed using a Modfit software (Verity Software House, Topsham, Me.).
As NO has previously been reported to exert tumor cell cycle alterations (Pervin S, et al. Natl Acad Sci USA 98:3583-3588, 2001), we investigated the cytostatic effect of statins in MCF-7 cells. MCF-7 cells were treated with simvastatin and fluvastatin for […] in the presence and absence of 1400 W (10 μM) and mevalonate (20 μM). Cell cycle progression was examined using FACScan flow cytometry analysis. […] As cell cycle progression from […] involves activations of the cell regulatory proteins, cyclins D and E, we investigated the effects of statins and iNOS inhibitor on the cell cycle proteins. […]

[5] = system: cyclin D1, cyclin E and p27 in MCF-7 cells; test: Cell cycle protein levels by Western analysis (cyclin D1, cyclin E, p27); assay type: cell-based; details: 1400 W 10 μM or mevalonate 20 μM
Method: A (Table): The cell cycle distribution of MCF-7 cells treated with either simvastatin or fluvastatin (5-10 μM) for 40 h in the presence or 1400 W (10 μM) or mevalonate (20 μM). The cell sorting was performed by flow cytometry as described in “Materials and Methods.” B: Cells were treated with simvastatin or fluvastatin (10 μM) in the presence or absence of 1400 W (10 μM) or mevalonate (20 μM) for 40 h and cyclins D1 and E protein levels were measured by the Western analysis using the corresponding polyclonal or monoclonal antibodies. Data are representative of three separate experiments.
After treatment with statins, cells were washed with ice-cold DPBS and resuspended in 150 μl of radioimmune precipitation assay buffer (20 mM Tris-HCl, pH 7.4, 2.5 mM EDTA, 1% Triton X-100, 1% sodium deoxycholate, 1% SDS, 100 mM NaCl, 100 mM sodium fluoride) containing 1 mM sodium vanadate, 10 μg/ml aprotinin, 10 μg/ml leupeptin, and 10 μg/ml pepstatin inhibitors. Cells were homogenized by passing the suspension through a 25-gauge needle (20 strokes). The lysate was centrifuged at 750×g for 10 min at 4° C. to pellet out the nuclei. The remaining supernatant was centrifuged for 30 min at 12,000×g. Protein was determined using the Lowry method and 50 μg of the lysate was used for the Western blot analysis. […] The band was detected using the ECL method (Amersham Biosciences).

[6] = system: MCF-7 cells; test: 3H-thymidine uptake (DNA synthesis / cell proliferation); assay type: cell-based; details: 10-20 μM
Method: Thymidine Uptake Studies:
DNA synthesis was measured by monitoring the uptake of tritiated thymidine, [^3H]TdR (Perkin-Elmer, Boston, Mass.). Cells (5×10^5/ml) were cultured with different concentrations of simvastatin or fluvastatin (0-10 μM) in the presence or absence of mevalonate (20 μM), 1400 W, or sepiapterin. Cells were pulse-chased with [^3H]TdR [0.5 μCi (0.185 MBq)/well during the last 3 h of a 24 h culture, harvested onto glass filters with an automatic cell harvester (Cambridge Technology, Cambridge, Mass.), and counted using the LKB Betaplate scintillation counter (Wallac, Gaithersburg, Md.). All experiments were performed in triplicate and repeated three times.

[7] = system: MCF-7 breast cancer cells; test: MTT reduction cytotoxicity assay in MCF-7 cells; details: 48 h; for MCF-7 cell death (MTT assay) by isoprenylation inhibitors: 10-20 μM
Method: MTT Reduction Cytotoxicity Assay:
MTT is taken up by cells and is reduced to a colored formazon product that can be detected by spectrophotometry (max=562 nm). Reduction of MTT is dependent upon the mitochondrial respiratory function, and thus measures the relative number of viable cells in the culture. After the treatment was completed, MCF-7 cells were washed twice with DPBS and taken in a ml of MEM without FBS and incubated with 5 mg/ml MTT solution for 1 h at 37° C. Medium was removed and cells were solubilized in DMSO. The absorption was measured at 562 nm with reference at 630 nm.
We assessed the effectiveness of simvastatin and fluvastatin to induce cytotoxicity in MCF-7 cells. MCF-7 breast cancer cells were treated with fluvastatin or simvastatin at different concentrations (0.5-20 μM) for 24-48 h. The changes in the number of viable cells were determined using the MTT assay that monitors the intracellular conversion of MTT to formazon spectrophotometrically max=562 nm).

[8] = system: iNOS in MCF-7 cells; test: iNOS mRNA (RT-PCR) and protein (Western) levels; assay type: cell-based; details: MCF-7 cells, 10-20 μM, 40 h, Western analysis
Method: After treatment with statins, cells were washed with ice-cold DPBS and resuspended in 150 μl of radioimmune precipitation assay buffer (20 mM Tris-HCl, pH 7.4, 2.5 mM EDTA, 1% Triton X-100, 1% sodium deoxycholate, 1% SDS, 100 mM NaCl, 100 mM sodium fluoride) containing 1 mM sodium vanadate, 10 μg/ml aprotinin, 10 μg/ml leupeptin, and 10 μg/ml pepstatin inhibitors. Cells were homogenized by passing the suspension through a 25-gauge needle (20 strokes). The lysate was centrifuged at 750×g for 10 min at 4° C. to pellet out the nuclei. The remaining supernatant was centrifuged for 30 min at 12,000×g. Protein was determined using the Lowry method and 50 μg of the lysate was used for the Western blot analysis. Proteins were resolved using the SDS-polyacrylamide gels and blotted onto nitrocellulose membranes. Membranes were washed with TBS (140 mM NaCl, 50 mM Tris-HCl, pH 7.2) containing 0.1% Tween 20 (TBST) and 5% skim milk to block the non-specific protein binding. Membranes were incubated with 1 μg/ml rabbit anti-iNOS polyclonal antibody (Abeam, Cambridge, Mass.), mouse anti-cyclin D1 antibody, mouse anti-cyclin E antibody (BD Biosciences, San Jose, Calif.) or rabbit anti-p27 antibody (Chemicon International, Temecula, Calif.) in TBST for overnight at 4° C., washed 5 times with TBST, and then incubated with goat anti-rabbit or rabbit anti-mouse IgG-horseradish peroxidase-conjugated secondary antibody (1:5,000) for 1.5 h at room temperature. The band was detected using the ECL method (Amersham Biosciences).
Following the treatments, medium was aspirated and 1 ml of TRIzol reagent (Invitrogen) was added and total RNA was extracted using the manufacturer's protocol. Five μg of RNA was used for the first strand cDNA synthesis using a first strand cDNA synthesis kit (Amersham Biosciences). […]

CC(=N)NCc1cccc(CN)c1 [1400 W, N-(3-aminomethyl)benzylacetamidine]
effect on statin-induced TUNEL-positive cells (proapoptotic effect) [1]: decrease
effect on statin-induced NO / NO2-/NO3- levels [2]: inhibited; also recorded: decreased
colony formation in statin-treated cells in the presence of modulator ([3]; 1400 W 10 μM or mevalonate 20 μM with statin 10 μM): restored
effect on statin-induced cell cycle alterations [4]: partially reversed
effect on statin-induced decrease of cyclin D1 and cyclin E [5]: restored in part

COC(=O)[C@H](CCSC)NC(=O)c1ccc(NC[C@@H](N)CS)cc1-c1ccccc1 [FTI-277, methyl {N-[2-phenyl-4-N[2(R)-amino-3-mecaptopropylamino]benzoyl]}-methionate]
loss of MCF-7 cell proliferation (3H-thymidine uptake) by isoprenylation inhibitors [6]: not
visible colony formation in soft agar [3]: not
MCF-7 cell death (MTT assay) by isoprenylation inhibitors [7]: not
iNOS protein levels by isoprenylation inhibitors [8]: not

COC(=O)[C@H](CC(C)C)NC(=O)c1ccc(NC[C@@H](N)CS)cc1-c1cccc2ccccc12 [GGTI-298, N-4-[2(R)-amino-3-mercaptopropyl]amino-2-naphthylbenzoyl-(L)-leucine methyl ester]
loss of MCF-7 cell proliferation (3H-thymidine uptake) by isoprenylation inhibitors [6]: loss of cell proliferation
visible colony formation in soft agar [3]: drastically lowered
MCF-7 cell death (MTT assay) by isoprenylation inhibitors [7]: induced MCF-7 cell death
iNOS protein levels by isoprenylation inhibitors [8]: dose-dependently induced

C[C@H](O)C(=O)C1=Nc2c(nc(N)[nH]c2=O)NC1 [sepiapterin]
effect on statin-induced TUNEL-positive cells (proapoptotic effect) [1]: exacerbated
effect on statin-induced TUNEL-positive cells (proapoptotic effect) ([1]; listed as Sepiapterin): further augmented
NO2-/NO3- levels, sepiapterin with FTI-277 ([2]; MCF-7 cells): no effect
NO2-/NO3- levels, sepiapterin with GGTI-298 compared to GGTI-298 alone ([2]; MCF-7 cells): significantly increased
NO2-/NO3- levels, sepiapterin alone ([2]; in the absence of statin): did not increase
effect on statin-induced NO / NO2-/NO3- levels [2]: significantly increased
colony growth, sepiapterin supplementation with simvastatin or fluvastatin ([3]; lower concentration of simvastatin or fluvastatin (5 μM), sepiapterin 50 μM): completely inhibited

CC(C)=CCC/C(C)=C/CC/C(C)=C/CC/C=C(\C)CC/C=C(\C)CCC=C(C)C [squalene]
effect on statin-induced MCF-7 cell cytotoxicity (MTT assay) ([7]; pretreatment before simvastatin or fluvastatin (10 μM), mevalonate 20 μM, 1400 W 10 μM): did not prevent

N-nitroso-fluvastatin [NO-fluvastatin]
potency in causing MCF-7 cell death compared to fluvastatin alone (MTT assay) ([7]; 0-1 μM): more potent

From patent US20070219208A1, “Methods for Treating Cancer” (priority 2006, published 2007)
